Measured values as given in patent US20240368644A1, “METHODS TO PRODUCE THERAPEUTIC FORMULATIONS COMPRISING HYDROXYBUTIRATE AND HYDROXYVALERATE, THERAPEUTIC FORMULATIONS AND USES THEREOF” (PHB Industrial S.A., priority 2021, published 2024).

Columns and labels:
[1] = Increase in circulating ketone level after administration of D-BHB, D-BHV and D-1,3BD in various ratios, subjects at rest; type: in vivo, human; conditions: for Max change in mMol/L (increase in circulating ketone level): 10 g dose, three human subjects at rest, composition given as % D-BHB acid; for prolonged rise of blood ketone levels: based on measured plasma levels of FIG. 1
Description: (§1) Examples include using a composition including D-BHB, D-BHV, and D-1,3BD in a subject at rest. The ketotic efficiency represents the net elevation of circulating ketones a ketone supplement affects over time in an individual. Ketotic efficiency may be represented as:
As illustrated by the examples of FIG. 1, these exemplary compositions can advantageously elevate circulating ketones by approximately two times greater than other known compositions. Such a composition can sustain ketonemia for longer than either D-BHB or D-1,3BD can when ingested alone by a subject of a given weight as shown by the 100% line (i.e., contains D-BHB, but not D-1,3BD) and the 0% line (i.e., contains only D-1,3BD, but not D-BHB).
As shown in the following table, the increase in circulating ketone level with a 10 g dose in three human subjects at rest was maximal at between 45-55% D-BHB in the tested compositions.

[2] = Ketotic efficiency (net elevation of circulating ketones over time per dose); type: in vivo, human; conditions: person at rest, concentration of DBHB + DBHV in composition with D-1,3BD; for 1 hour ketotic efficiency: 1 hour post-administration; for 2 hours ketotic efficiency: 2 hours post-administration
Description: as §1
where mMol/L is the concentration of circulating p-hydroxybutyrate in the blood, g is the total dose of the combined D-BHB, D-BHV, and D-1,3,BD in grams, kg is the mass of the individual in kilograms, and t is an increment of time in minutes.
The ketotic efficiency of the D-BHB, D-BHV, and D-1,3BD blend measured over of one hour in this exemplary study is 43% to 104% greater than the administration of pure (D)-1,3 butanediol or pure (D)-β-hydroxybutyric acid alone, respectively. While this example pertains to a fasted subject at rest, the relative utility of blended vs pure constituents has also been observed in fed and active subjects.
FIG. 2 represents the expected ketosis for a person at rest with a 0.13 g/kg dose of (D)-β-hydroxybutyric acid, (D)-β-hydroxyvaleric acid, and (D)-1,3 butanediol over time for the periods shown. […] Administration of examples in accordance with the present disclosure are expected to cause efficient, prolonged rises in circulating blood ketone levels in a manner that is unexpected based on the current literature. As shown in the following table, the highest efficiency at both 1 and 2 hours post-administration was obtained at 45% D-BHB+D-BHV (0.96:0.04) to 55% D-1,3BD and the lowest efficiency was observed when administering D-BHB or D-1,3BD alone.

[3] = test system: patients with glucose transporter 1 deficiency syndrome (GLUT1); conditions: cited from earlier work

SMILES | Max change in mMol/L (increase in circulating ketone level) [1] [mmol/L] | prolonged rise of blood ketone levels [1] | 1 hour ketotic efficiency [2] [kg·mmol·min/g/L] | 2 hours ketotic efficiency [2] [kg·mmol·min/g/L] | decrease of paroxysmal non-epileptic manifestations [3] [%]
CC(O)CCO (stereo not drawn) [0%, (D)-1,3 butanediol] | 0.8 | does not cause a prolonged rise of blood ketone levels | 266 | 462 | 
CC(O)CC(=O)O (stereo not drawn) [100%, (D)-β-hydroxybutyric acid] | 0.9 | A similar result | 335 | 566 | 
CCCCCCC(=O)OCC(COC(=O)CCCCCC)OC(=O)CCCCCC [triheptanoin, Triheptanoin] |  |  |  |  | 90
